How the values were obtained:
[1] = test system: human lens epithelial cells (HLE-B3); set-up: method as in PMID 17645667; details: 25 μM under UVA exposure; cited from earlier work
[2] = test system: wild-type AB strain zebrafish; assay: Determination of ATP and ROS levels in zebrafish larvae; assay type: in vivo, zebrafish (Danio rerio); details: BBR 25 or 50 μM, M1 100 or 200 μM, 5 dpf; for ROS levels: relative to control
Experimental: Wild-type AB strain zebrafish (6 hpf) were treated with BBR (25 or 50 μM), M1 (100 or 200 μM), or 0.05% DMSO (control) until 5 dpf, with 30 larvae per treatment and three biological replicates (total 90 larvae per group). Subsequently, 3 larvae were pooled per sample (10 samples per group) and the entire zebrafish was transferred directly into a 96-well plate for fluorescence detection. Cellular ATP content was determined using the CellTiter-Glo® Luminescent Cell Viability Assay Kit (Promega, Madison, WI, USA), which relies on a bioluminescent principle (luciferase-luciferin reaction). Cellular ROS levels were measured using CM-H2DCFDA kits (Invitrogen, Carlsbad, CA, USA), based on the oxidation of non-fluorescent CM-H2DCFDA to fluorescent DCF by ROS. Reagents were prepared and reactions were performed according to the manufacturers’ instructions, with luminescence detected using a Spark multifunctional microplate reader (Tecan, Grödig, Austria).

[3] = Zebrafish embryonic developmental toxicity (mortality, LC50); set-up: species or system zebrafish (Danio rerio); details: wild-type AB, in vivo, exposure from 6 hpf, mortality at 5 dpf, read-out: LC50 (half-lethal concentration)
Experimental: First, the half-lethal concentration (LC50) values of berberine (BBR) and berberrubine (M1) in zebrafish were calculated. Wild-type AB strain zebrafish embryos staged at 6 h post-fertilization (hpf), corresponding to the 50% epiboly stage, were exposed to BBR or M1 at different concentrations. Mortality was recorded via stereomicroscopy at 5 days post-fertilization (5 dpf).
Embryos at 6 hpf (50% epiboly stage) were grouped and exposed to incubation solutions of berberine (BBR) at concentrations of 20, 50, 100, 200, and 400 µM, or M1 at concentrations of 20, 50, 100, 200, 400, and 625 µM, until 5 dpf. The control group was treated with 0.05% DMSO in saline. All experiments were performed in three biological replicates; unless otherwise specified, each replicate included 30 larvae per treatment, resulting in a total of 90 larvae per treatment.
Wild-typed AB strain zebrafish embryos at the 6 h post-fertilization stage (6 hpf) were grouped (30 fishes per group), and BBR at the concentrations of 20, 50, 100 and 200 µM or M1 at the concentrations of 20, 50, 100, 200, 400 and 625 µM were administered by microinjection, taking 0.05% DMSO in saline as the control. The mortality was recorded everyday by SZX2 stereomicroscopy (Olympus, Hachioji-shi, Japan) until 5 dpf. Dead embryos were recorded and discarded every 24 h. […]

[4] = test system: rabbit corneal epithelium; set-up: method as in PMID 32074824; details: topical application of 1.5 mg/mL; cited from earlier work
[5] = test system: wild-type AB strain zebrafish ocular cells; assay: Fluorescence microscopy for ocular cell apoptosis (acridine orange); assay type: in vivo, zebrafish (Danio rerio); details: for fluorescence intensity of apoptotic ocular cells (ratio to eye area): control 0.19
Experimental: To investigate the underlying mechanism of ocular toxicity, we evaluated the proapoptotic effects of BBR and M1 on wild-type AB strain zebrafish ocular cells. Zebrafish embryos at 6 hpf were water-soluble administration with BBR (25 or 50 μM) or M1 (100 or 200 μM), and the fluorescence intensity of apoptotic ocular cells was measured at 5 dpf using confocal fluorescence microscopy (Figure 4A). […] Specifically, the fluorescence intensity (a marker of apoptotic cell abundance) was increased from 0.19 to 0.28 and 0.32 upon the treatments of 25 μM BBR and 50 μM BBR, respectively.
A total of 30 wild-type AB strain zebrafish at 6 hpf were treated with BBR at 25 or 50 μM, M1 at 100 or 200 μM, or 0.05% DMSO (control), respectively, […], with 30 larvae per treatment and three biological replicates (total 90 larvae per group). The zebrafish larvae were then stained with acridine orange. After staining, 10 larvae were randomly selected from each experimental group and imaged using a motorized-focus continuous-zoom fluorescence microscope AZ100 (Nikon, Shinagawa-ku, Japan) with the magnification of 10–40× and exposure time of 200–500 ms. The fluorescence intensity of ocular apoptotic cells and mitochondria in zebrafish larvae was measured and analyzed using NIS-Elements 6.10 (Nikon Imaging Software, Nikon, Japan).

[6] = test system: wild-type AB strain zebrafish larvae; assay: Zebrafish visual motor response (locomotor behavior, dark/light); assay type: in vivo, zebrafish (Danio rerio); details: for swimming pattern (trajectories) upon light stimulation: first 30 s of light stimulation, compared to controls
Experimental: Wild-type larvae (6 hpf, 30 per group) were incubated with BBR at the concentrations of 20, 50, 100, and 200 µM or M1 at the concentrations of 20, 50, 100, 200, 400, and 625 µM for 5 days. At 120 hpf, larvae were tested in a 96-well plate (1 larva/well, 12 per group). After 10 min acclimation, light-dark transition tests were performed (5 min dark to 5 min light, repeated 3 times), with recordings every 1 min for 40 min. The trajectory and 1 min movement distance were recorded by Behavioral Tracking System: Daniovision, Zebralab 3.3 (ViewPoint, Civrieux, France). Data were processed in Excel (Microsoft, Redmond, WA, USA). Metrics included 1 min total distance, movement time, and average speed. Averages of 12 larvae per group were used for bar graphs; comparisons with the control group were analyzed via t-test. The experiment was conducted three times in parallel.

Compound	phototoxic damage to cells [1]	intracellular ATP levels [2]	ROS levels [2]	LC50 [3] [µM]	corneal epithelial repair [4]	fluorescence intensity of apoptotic ocular cells (ratio to eye area) ([5]; 25 μM)	fluorescence intensity of apoptotic ocular cells (ratio to eye area) ([5]; 50 μM)	average swimming speed, dark conditions ([6]; dark, 200 μM)	swimming distance and duration, dark conditions ([6]; dark, concentrations above 100 μM)	swimming pattern (trajectories) upon light stimulation [6]	locomotor metrics (distance, time, speed) upon light stimulation ([6]; light stimulation, 200 μM)	apoptosis in ocular cells ([5]; 200 μM compared with 100 μM)	average swimming distance ([6]; 625 μM)	swimming duration ([6]; concentrations above 200 μM)	locomotion in the dark ([6]; dark, 20-625 µM)
COc1ccc2cc3[n+](cc2c1OC)CCc1cc2c(cc1-3)OCO2 [BBR, berberine]	severe damage	significantly reduced	marked and dose-dependent increase	167	delayed corneal epithelial repair	0.28	0.32	decreased average speed	significantly reduced	irregular and disorganized swimming patterns	significant reductions in all three locomotor metrics	–	–	–	–
COc1ccc2cc3[n+](cc2c1O)CCc1cc2c(cc1-3)OCO2 [M1, berberrubine]	–	significantly reduced	marked and dose-dependent increase	558	–	–	–	–	–	irregular and disorganized swimming patterns	–	significant increase in apoptosis	reduced average swimming distance	decreased swimming duration	did not affect locomotion in the dark
